# How the values were obtained:
# [1] = tested on: thrombin formation in plasma samples from healthy volunteers and hemophilia A patients; experiment: onset of thrombin formation in the inventive assay compared with the aPTT (onset of clotting by fibrin formation); type: biochemical; conditions: 250 μmol/l substrate added to aPTT activation (aluminium silicate, phospholipids, CaCl2); 80 plasma samples; FIG. 11
# Excerpt: FIG. 11 compares the detection of the onset of coagulation by the Fibrin Formation method and by the inventive method. For this experiment 80 plasma samples from healthy volunteers and hemophilia A patients were clotted by the addition of a contact phase activator (aluminium silicate, Sigma, St. Louis, USA), phospholipids (rabbit brain cephalin, Pentapharm, Basle) and CaCl2 (Sigma, St. Louis, USA). This procedure is called “Activated Partial Thromboplastin time” (aPTT). The time from the start of the procedure till clotting is detected is the aPTT. The inventive assay was performed using the identical activation procedure as the aPTT. The difference between the two procedures was the addition of the fast chromogenic substrate • (H-D-CHG-Ala-Arg-pNa.2AcOH, 250 μmol/l, Pentapharm) and the fibrin polymerisation inhibitor H-Gly-Pro-Arg-Pro-OH AcOH (5 mg/ml, Pentapharm) in the inventive assay.
# thrombin = thrombin (Homo sapiens, UniProt P00734); conditions: thrombin substrate, substrate-thrombin reaction; cited from earlier work
substance,measurement,setting,value
H-D-CHG-Ala-Arg-pNa.2AcOH,effect on onset of thrombin formation,[1],delayed the onset of the thrombin formation
same,Km,thrombin,15.9 µM
H-β-Ala-Gly-Arg-pNA°2AcOH,Km,thrombin,2000 µM

# From patent publication US20090087870A1, “HEMATOLOGICAL ASSAY AND KIT” (DSM IP ASSETS B.V., priority 2002, published 2009)
